Measurements: patent US10450314B2, “Pteridine derivatives as modulators of ROR gamma” (Boehringer Ingelheim International GmbH, priority 2015, dated 2019)

Columns and labels:
[1] = Human liver microsome (HLM) metabolic stability assay; format: in vitro ADME; settings: human liver microsomes, 1 uM compound, 37° C., 60 min; % hepatic blood flow
Description: Assessment of Metabolic Stability
The 5 time point, high-throughput human liver microsome (HLM) metabolic stability assay is designed to determine in vitro compound metabolism. Compounds are incubated with HLMs at a concentration of 1 uM, at 37° C., for a total of 60 min. The percent of compound remaining at 5, 15, 30, and 60 min is used to calculate the t1/2 (min), CLint (mL/min/kg), CLh (mL/min/kg), and % Qh. The assay is based on a 96-well format and can accommodate up to 92 compounds per plate (n=1).
Using the 96-well multi-channel head, the Biomek FX, equipped with a Peltier heating block/shaker, is programmed to accomplish the following steps: • 1. Pipette 175 uL of 1.15 mg/mL microsomes into each of the 96 conical inserts (Analytical Sales and Products, catalog number 96PL05) that fit into the plate of the Peltier heating block/shaker (the incubation plate) • 2. Add 5 uL of compounds from the assay plate to the microsomes and shake the mixture at 600 rpm at 42.1° C. for 10 min (a setting of 42.1° C. on the Peltier is required for the samples to incubate at 37° C.) • 3. After 10 min, prompt the user to add the NADPH plate to the deck and add 20 uL from the NADPH plate to the incubation plate to start the reaction • 4. Add 215 uL of 100%, cold acetonitrile containing an internal standard(s) to a 0 minute, 5 minute, 15 minute, 30 minute, and 60 minute “quench” plate • 5. At 0 min, 5 min, 15 min, 30 min, and 60 min into the incubation, aspirate 12 uL from the incubation mixture and add it to the quench solution to stop the reaction • 6. Add 185 uL HPLC grade water to each well of the 0, 5, 15, 30 and 60 minute quench plates to dilute compounds to the appropriate concentration for the mass spectrometer
After all time points are collected, the quench plates are sealed with 96-well pierceable plate mats or heat sealing foil and centrifuged at 3000 rpm for 15 min to pellet the microsomes.
The plates are analyzed using LC/MS/MS with electron spray ionization (ESI) and the previously determined MRM transitions. The LC method includes the following parameters:
Using an Excel template in Activitybase, the peak areas corresponding to 5, 15, 30 and 60 min are compared to the peak area at 0 min to calculate the percent of remaining compound using the following equation:
Percent compound remaining=(AUC at Time t min/AUC at Time 0 min)×100 where t=0, 5, 15, 30 or 60 min.
Time (min) is plotted against the natural logarithm (Ln) of the percent compound remaining to determine the slope. The slope is used to calculate t1/2 (min) using the equation, t1/2=0.693/slope.
Clint, Intrinsic Clearance

RORγ = biological target: T1, RORγ (Homo sapiens, UniProt P51449); assay: RORγ Reporter Gene Assay (RGA), luciferase transactivation in transiently transfected HEK 293 cells; format: cell-based; settings: HEK 293 cells cotransfected with pGL4.3 luc2P/GAL4UAS and pBIND Gal4DBD hRORC LBD; 20-24 h incubation
T1 construct: expressed in transfected cells; host or cells: HEK 293 cells, transiently cotransfected with pGL4.3 luc2P/GAL4UAS/Hygro reporter
T1 sequence (P51449 269-508 limits assumed): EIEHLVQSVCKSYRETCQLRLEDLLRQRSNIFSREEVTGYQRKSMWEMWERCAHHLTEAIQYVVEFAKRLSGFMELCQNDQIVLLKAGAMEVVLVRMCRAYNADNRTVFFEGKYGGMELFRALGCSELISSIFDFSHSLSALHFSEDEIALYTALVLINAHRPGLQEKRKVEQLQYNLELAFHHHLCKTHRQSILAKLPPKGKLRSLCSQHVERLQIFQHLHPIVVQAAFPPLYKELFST
Description: Reporter Gene Assay (RGA)
A nuclear receptor transactivation assay is performed to quantitate the ability of test compounds to inhibit RORγ transactivation of a luciferase reporter. A similar assay is described in: Khan et al., Bioorganic & Medicinal Chemistry Letters 23 (2013), 532-536. The system uses transiently transfected HEK 293 cells cotransfected with two plasmids (pGL4.3, luc2P/GAL4UAS/Hygro, and pBIND, Gal4DBD hRORC LBD1-3). The positive control is co-transiently transfected with both plasmids, and the negative control contains the pGL4.3 promoter sequence. Assays are assembled in 384 well plates where transiently transfected cells and test compound at varying concentrations are incubated for 20-24 h. The next day, assays plates are taken out and equilibrated at RT for 20-30 minutes. Bright-Glo™ Luciferase Assay System is used to detect Luciferase production. After addition of Bright GLO detection reagent, the plates are incubated at RT for 20 minutes. The plates are read on an Envision plate reader to measure luminescence signal. The RLU signal is converted to POC relative to control and blank wells.
Compound Dilution Buffer:
Bright Glo Luciferase Assay System: Promega #E2620
Thaw lysis buffer provided in kit, add 100 mL lysis buffer to substrate powder.

Row | SMILES | HLM (% Qh) [1] | IC50 (RORγ)
1 | CCS(=O)(=O)c1cnc(CNc2nc3c(C)nc(-c4c(C)ncnc4C4CC4)nc3n([C@@H](C)C(F)F)c2=O)nc1 [Example 94] | <24 % Qh | 205 nM
2 | CCS(=N)(=O)c1ccc(CNc2nc3c(C)nc(-c4c(C)ncnc4C4CC4)nc3n([C@@H](C)C3CC3)c2=O)cc1 (single isomer, unassigned) [Example 36a] | <24 % Qh | 260 nM
3 | CC[C@@H](C)n1c(=O)c(NCc2ccc(S(C)(=O)=O)cn2)nc2c(CO)nc(-c3c(C)ncnc3C3CC3)nc21 [Example 52] | <24 % Qh | 335 nM
4 | CC[C@H](C)n1c(=O)c(NCc2ccc(S(=O)(=O)CC)nc2)nc2c(C)nc(-c3c(C)ncnc3C3CC3)nc21 [Example 64] | <24 % Qh | 95 nM
5 | CC[C@@H](C)n1c(=O)c(NCc2ccc(S(C)(=O)=O)cn2)nc2c(CF)nc(-c3c(C)ncnc3C3CC3)nc21 [Example 54] | 41 % Qh | 225 nM
6 | CCS(=N)(=O)c1ccc(CNc2nc3c(C)nc(-c4c(C)ncnc4C4CC4)nc3n([C@@H](C)C(F)(F)F)c2=O)nc1 (single isomer, unassigned) [Example 102b] | <24 % Qh | 640 nM
7 | CC[C@@H](C)n1c(=O)c(NCc2ccc(S(=O)(=O)CC)cn2)nc2c(CO)nc(-c3c(OC)ncnc3C3CC3)nc21 [Example 1] | <24 % Qh | 200 nM
8 | CC[C@@H](C)n1c(=O)c(NCc2ccc(S(=O)(=O)CC)cn2)nc2c(CF)nc(-c3c(C)ncnc3C3CC3)nc21 [Example 53] | 33 % Qh | 160 nM
9 | CCS(=O)(=O)c1cnc(CNc2nc3c(C)nc(-c4c(C)ncnc4C4CC4)nc3n([C@H](C)C(F)F)c2=O)nc1 [Example 93] | <24 % Qh | 185 nM
10 | Cc1ncnc(C2CC2)c1-c1nc(C)c2nc(NCc3ccc(S(C)(=O)=O)cn3)c(=O)n([C@@H](C#N)C(C)C)c2n1 [Example 31] | 55 % Qh | 850 nM
11 | CC[C@@H](C)n1c(=O)c(NCc2ccc(S(=O)(=O)CC)cn2)nc2c(C)nc(-c3c(C)ncnc3C3CC3)nc21 [Example 65] | <24 % Qh | 135 nM
12 | CC[C@@H](C)n1c(=O)c(NCc2ccc(S(C)(=O)=O)cn2)nc2c(COC(C)=O)nc(-c3c(C)ncnc3C3CC3)nc21 [Example 47] | 56 % Qh | 1050 nM
13 | CC[C@@H](C)n1c(=O)c(NCc2ncc(S(=O)(=O)CC)cn2)nc2c(C)nc(-c3c(OC)ncnc3C3CC3)nc21 [Example 4] | <24 % Qh | 180 nM
14 | Cc1ncnc(C2CC2)c1-c1nc(C)c2nc(NCc3ccc(S(C)(=N)=O)cc3)c(=O)n([C@@H](C)C(F)(F)F)c2n1 (single isomer, unassigned) [Example 91b] | <24 % Qh | 255 nM
15 | Cc1ncnc(C2CC2)c1-c1nc(C)c2nc(NCc3ccc(S(C)(=N)=O)cc3)c(=O)n([C@@H](C)C(F)(F)F)c2n1 (single isomer, unassigned) [Example 91a] | <24 % Qh | 295 nM
16 | CC[C@@H](C)n1c(=O)c(NCc2ncc(S(C)(=O)=O)cn2)nc2c(C)nc(-c3c(C)ncnc3C3CC3)nc21 [Example 57] | <24 % Qh | 500 nM
17 | Cc1ncnc(C2CC2)c1-c1nc(C)c2nc(NCc3ccc(S(C)(=N)=O)cn3)c(=O)n([C@@H](C)C(F)(F)F)c2n1 (single isomer, unassigned) [Example 106a] | <24 % Qh | 1300 nM
18 | CC[C@@H](C)n1c(=O)c(NCc2ncc(S(C)(=O)=O)cn2)nc2c(C)nc(-c3c(OC)ncnc3C3CC3)nc21 [Example 56] | <24 % Qh | 1100 nM
19 | CC[C@@H](C)n1c(=O)c(NCc2ccc(S(=O)(=O)CC)cn2)nc2c(CO)nc(-c3c(C)ncnc3C3CC3)nc21 [Example 51] | <24 % Qh | 230 nM
20 | CC[C@H](C)n1c(=O)c(NCc2ccc(S(C)(=O)=O)cn2)nc2c(C)nc(-c3c(C)ncnc3C3CC3)nc21 [Example 14] | <24 % Qh | 115 nM

Continued, values first:

Row | HLM (% Qh) [1] | IC50 (RORγ) | SMILES
21 | 27 % Qh | 125 nM | COc1ncnc(C2CC2)c1-c1nc(C)c2nc(NCc3ccc(S(N)(=O)=O)cn3)c(=O)n([C@@H](C)C3CC3)c2n1 [Example 62]
22 | <24 % Qh | 235 nM | Cc1ncnc(C2CC2)c1-c1nc(C)c2nc(NCc3ccc(S(C)(=O)=O)cn3)c(=O)n(C(C)C(F)F)c2n1 (stereo not shown) [Example 90]
23 | 27 % Qh | 510 nM | COc1ncnc(C2CC2)c1-c1nc(C)c2nc(NCc3ccc(S(C)(=N)=O)cn3)c(=O)n([C@@H](C)C(F)(F)F)c2n1 (single isomer, unassigned) [Example 105b]
24 | <24 % Qh | 270 nM | CC[C@H](C)n1c(=O)c(NCc2ccc(S(N)(=O)=O)cn2)nc2c(C)nc(-c3c(C)ncnc3C3CC3)nc21 [Example 85]
25 | 39 % Qh | 130 nM | COc1ncnc(C2CC2)c1-c1nc(C)c2nc(NCc3ccc(S(C)(=O)=O)cn3)c(=O)n([C@@H](C)C(F)(F)F)c2n1 [Example 17]
26 | <24 % Qh | 680 nM | CCS(=O)(=O)c1ccc(CNc2nc3c(C)nc(-c4c(OC)ncnc4C4CC4)nc3n(C(C)C)c2=O)nc1 [Example 77]
27 | <24 % Qh | 730 nM | Cc1ncnc(C2CC2)c1-c1nc(C)c2nc(NCc3ccc(S(C)(=N)=O)cn3)c(=O)n([C@@H](C)C3CC3)c2n1 (single isomer, unassigned) [Example 43a]
28 | <24 % Qh | 315 nM | CCS(=N)(=O)c1ccc(CNc2nc3c(C)nc(-c4c(OC)ncnc4C4CC4)nc3n([C@@H](C)C(F)(F)F)c2=O)nc1 (single isomer, unassigned) [Example 101b]
29 | <24 % Qh | 73 nM | CC[C@@H](C)n1c(=O)c(NCc2ccc(S(=O)(=O)CC)cn2)nc2c(C)nc(-c3c(OC)ncnc3C3CC3)nc21 [Example 86]
30 | <24 % Qh | 255 nM | CCS(=O)(=O)c1ccc(CNc2nc3c(C)nc(-c4c(OC)ncnc4C4CC4)nc3n(CC(C)C)c2=O)nc1 [Example 80]
31 | 34 % Qh | 275 nM | CC[C@@H](C)n1c(=O)c(NCc2ccc(S(N)(=O)=O)cn2)nc2c(C)nc(-c3c(C)ncnc3C3CC3)nc21 [Example 76]
32 | <24 % Qh | 365 nM | CCS(=N)(=O)c1ccc(CNc2nc3c(C)nc(-c4c(OC)ncnc4C4CC4)nc3n([C@@H](C)C(F)(F)F)c2=O)nc1 (single isomer, unassigned) [Example 101a]
33 | 25 % Qh | 64 nM | CCS(=O)(=O)c1ccc(CNc2nc3c(C)nc(-c4c(OC)ncnc4C4CC4)nc3n([C@@H](C)C3CC3)c2=O)cn1 [Example 66]
34 | <24 % Qh |  | CCS(=O)(=O)c1ccc(CNc2nc3c(C)nc(-c4c(C)ncnc4C4CC4)nc3n([C@@H](C)C3CC3)c2=O)nc1 [Example 68]
